Laboratory results from patent US20260232616A1, “USE OF SIVELESTAT IN ANALGESIA” (SHANGHAI HUILUN PHARMACEUTICAL CO., LTD., priority 2023, published 2026).
Marks after values point to notes of the source that are not given here.

Test system: rat model of postoperative pain
Assay: Mechanical allodynia testing in a rat model of postoperative pain (hind paw incision)
Type: in vivo
Conditions: for Mechanical allodynia threshold (PWT (g)): single dose
[1] = Sivelestat sodium 100 mg/kg IP, 0.5 h
[2] = Sivelestat sodium 100 mg/kg IP, 1 h
[3] = Sivelestat sodium 100 mg/kg IP, 2 h
[4] = Sivelestat sodium 150 mg/kg IP, 0.5 h
[5] = Sivelestat sodium 150 mg/kg IP, 1 h
[6] = Sivelestat sodium 150 mg/kg IP, 2 h
[7] = Sivelestat sodium 150 mg/kg IP, 6 h
[8] = Sivelestat sodium 200 mg/kg IP, 0.5 h
[9] = Sivelestat sodium 200 mg/kg IP, 1 h
[10] = Sivelestat sodium 200 mg/kg IP, 2 h
[11] = Sivelestat sodium 300 mg/kg IP, 0.5 h
[12] = Sivelestat sodium 300 mg/kg IP, 1 h
[13] = Sivelestat sodium 300 mg/kg IP, 2 h

CC(C)(C)C(=O)Oc1ccc(S(=O)(=O)Nc2ccccc2C(=O)NCC(=O)O)cc1 [Sivelestat sodium, sivelestat sodium]
% MPE (anti-allodynic effect) [1]: 25.2* % | % MPE (anti-allodynic effect) [2]: 42.4*** % | % MPE (anti-allodynic effect) [3]: 44.1*** % | Mechanical allodynia threshold (PWT (g)) [1]: 5.5 g | Mechanical allodynia threshold (PWT (g)) [2]: 7.8 g | Mechanical allodynia threshold (PWT (g)) [3]: 8.3 g | % MPE (anti-allodynic effect) [4]: 31.4*** % | % MPE (anti-allodynic effect) [5]: 51.1*** % | % MPE (anti-allodynic effect) [6]: 48.4*** % | % MPE (anti-allodynic effect) [7]: 11.3% | Mechanical allodynia threshold (PWT (g)) [4]: 6.3 g | Mechanical allodynia threshold (PWT (g)) [5]: 8.9 g | Mechanical allodynia threshold (PWT (g)) [6]: 8.8 g | Mechanical allodynia threshold (PWT (g)) [7]: 3.9 g | % MPE (anti-allodynic effect) [8]: 32.6*** % | % MPE (anti-allodynic effect) [9]: 55.1*** % | % MPE (anti-allodynic effect) [10]: 45.3*** % | Mechanical allodynia threshold (PWT (g)) [8]: 6.4 g | Mechanical allodynia threshold (PWT (g)) [9]: 9.4 g | Mechanical allodynia threshold (PWT (g)) [10]: 8.4 g | % MPE (anti-allodynic effect) [11]: 37.5*** % | % MPE (anti-allodynic effect) [12]: 49*** % | % MPE (anti-allodynic effect) [13]: 52.6*** % | Mechanical allodynia threshold (PWT (g)) [11]: 7.0 g | Mechanical allodynia threshold (PWT (g)) [12]: 8.6 g | Mechanical allodynia threshold (PWT (g)) [13]: 9.3 g | duration of a high level of analgesic efficacy (rat postoperative pain model, conclusion from Embodiment 1): more than 6 h
